According to article PMC2697495 (The Journal of pharmacy and pharmacology, 2008):
Marks after values point to notes of the source that are not given here.

What was measured:
[1] = molecular target: T1, UGT2B7 (Homo sapiens, UniProt P16662); assay: AZT glucuronidation by recombinant UGT2B7; format: biochemical; conditions: 500 μM AZT, n=3
T1 sequence (P16662 24-529): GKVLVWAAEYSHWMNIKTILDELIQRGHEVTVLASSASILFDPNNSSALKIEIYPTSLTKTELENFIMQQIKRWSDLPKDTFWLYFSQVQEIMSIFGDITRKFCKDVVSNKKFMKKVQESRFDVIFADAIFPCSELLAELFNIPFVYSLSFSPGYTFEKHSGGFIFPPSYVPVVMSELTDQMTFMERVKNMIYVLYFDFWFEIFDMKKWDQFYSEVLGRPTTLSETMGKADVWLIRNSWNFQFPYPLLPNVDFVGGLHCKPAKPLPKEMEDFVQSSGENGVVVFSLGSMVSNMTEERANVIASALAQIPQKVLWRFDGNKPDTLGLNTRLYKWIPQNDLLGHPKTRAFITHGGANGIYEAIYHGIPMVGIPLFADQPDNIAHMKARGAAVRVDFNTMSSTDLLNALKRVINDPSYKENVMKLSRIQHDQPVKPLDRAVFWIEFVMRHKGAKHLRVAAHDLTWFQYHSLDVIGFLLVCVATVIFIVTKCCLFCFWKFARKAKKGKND

[2] = system: HLMs; conditions: 5 mM saccharolactone, ref Alkharfy & Frye 2001; cited from earlier work
[3] = molecular target: T2, UGT1A6 (HEK293) (Homo sapiens, UniProt P19224); assay: 5-HT glucuronidation by recombinant UGT1A6; format: biochemical; conditions: for 5-HT glucuronidation, % of the control activity (measured at 0 mM): UGT1A6 (HEK293), 4 mM 5-HT, n=3
T2 sequence (P19224 27-532): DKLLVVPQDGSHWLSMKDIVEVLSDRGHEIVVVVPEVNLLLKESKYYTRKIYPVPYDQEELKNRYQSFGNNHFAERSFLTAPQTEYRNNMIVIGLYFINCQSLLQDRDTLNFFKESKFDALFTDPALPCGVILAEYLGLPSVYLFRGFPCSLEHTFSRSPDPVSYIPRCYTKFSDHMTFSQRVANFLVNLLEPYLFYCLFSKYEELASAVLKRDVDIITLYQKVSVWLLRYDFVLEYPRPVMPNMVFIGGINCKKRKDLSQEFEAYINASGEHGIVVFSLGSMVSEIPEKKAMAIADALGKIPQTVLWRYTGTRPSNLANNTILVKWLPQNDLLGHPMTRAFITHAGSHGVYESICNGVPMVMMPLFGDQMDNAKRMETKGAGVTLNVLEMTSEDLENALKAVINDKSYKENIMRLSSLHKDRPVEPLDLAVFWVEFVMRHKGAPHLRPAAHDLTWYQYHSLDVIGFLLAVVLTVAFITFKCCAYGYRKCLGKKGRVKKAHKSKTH

[4] = molecular target: T3, UGT1A3 (Homo sapiens, UniProt P35503); assay: Estradiol-17 glucuronidation by recombinant UGT1A3; format: biochemical; conditions: 100 μM estradiol, n=3
T3 sequence (P35503 29-534): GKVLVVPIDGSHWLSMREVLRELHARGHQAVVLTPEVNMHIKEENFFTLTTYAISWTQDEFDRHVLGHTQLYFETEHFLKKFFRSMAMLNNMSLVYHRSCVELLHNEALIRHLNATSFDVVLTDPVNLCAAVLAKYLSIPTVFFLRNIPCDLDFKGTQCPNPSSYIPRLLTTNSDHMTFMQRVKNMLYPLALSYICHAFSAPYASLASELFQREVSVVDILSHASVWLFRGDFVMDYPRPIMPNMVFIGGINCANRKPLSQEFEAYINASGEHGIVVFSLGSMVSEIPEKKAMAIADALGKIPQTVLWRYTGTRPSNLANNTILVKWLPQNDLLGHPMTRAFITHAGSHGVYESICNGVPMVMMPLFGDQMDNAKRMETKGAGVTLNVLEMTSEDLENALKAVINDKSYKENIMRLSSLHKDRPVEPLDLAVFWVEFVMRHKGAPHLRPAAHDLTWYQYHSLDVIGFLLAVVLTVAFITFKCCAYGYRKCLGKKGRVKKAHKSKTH

[5] = molecular target: T4, UGT1A6 (insect) (Homo sapiens, UniProt P19224); assay: 5-HT glucuronidation by recombinant UGT1A6; format: biochemical; conditions: for 5-HT glucuronidation, % of the control activity (measured at 0 mM): UGT1A6 (insect), 4 mM 5-HT, n=3
T4 sequence (P19224 27-532): T2 sequence (P19224 27-532)

[6] = system: pooled human liver microsomes (pHLMs); assay: Salicylic acid; format: biochemical; conditions: pHLM, 5 mM salicylic acid, phenol glucuronide, n=3
[7] = system: pooled human liver microsomes (pHLMs); assay: Estradiol-17 glucuronidation by pHLMs; format: biochemical; conditions: pHLM, 100 μM estradiol, n=3
[8] = system: pooled human liver microsomes (pHLMs); assay: Estradiol-3 glucuronidation by pHLMs; format: biochemical; conditions: for Estradiol-3 glucuronidation, % of the control activity (measured at 0 mM): pHLM, 100 μM estradiol, n=3
[9] = system: endogenous β-glucuronidase, insect cell expressed UGT2B7; conditions: recombinant UGT2B7 preparation; 10 mM saccharolactone
[10] = system: rats; conditions: in vivo in rats; ref Brunelle and Verbeeck (1997); cited from earlier work
[11] = molecular target: T1, UGT2B7; assay: Codeine glucuronidation by recombinant UGT2B7; format: biochemical; conditions: 1 mM codeine, n=3
[12] = system: endogenous β-glucuronidase, insect cell expressed UGT1A1; conditions: recombinant UGT1A1 preparation; 10 mM saccharolactone
[13] = molecular target: UGT1A9 (Homo sapiens, UniProt O60656); assay: Salicylic acid; format: biochemical; conditions: 5 mM salicylic acid, n=3
Sequence of UGT1A9 (O60656 26-530): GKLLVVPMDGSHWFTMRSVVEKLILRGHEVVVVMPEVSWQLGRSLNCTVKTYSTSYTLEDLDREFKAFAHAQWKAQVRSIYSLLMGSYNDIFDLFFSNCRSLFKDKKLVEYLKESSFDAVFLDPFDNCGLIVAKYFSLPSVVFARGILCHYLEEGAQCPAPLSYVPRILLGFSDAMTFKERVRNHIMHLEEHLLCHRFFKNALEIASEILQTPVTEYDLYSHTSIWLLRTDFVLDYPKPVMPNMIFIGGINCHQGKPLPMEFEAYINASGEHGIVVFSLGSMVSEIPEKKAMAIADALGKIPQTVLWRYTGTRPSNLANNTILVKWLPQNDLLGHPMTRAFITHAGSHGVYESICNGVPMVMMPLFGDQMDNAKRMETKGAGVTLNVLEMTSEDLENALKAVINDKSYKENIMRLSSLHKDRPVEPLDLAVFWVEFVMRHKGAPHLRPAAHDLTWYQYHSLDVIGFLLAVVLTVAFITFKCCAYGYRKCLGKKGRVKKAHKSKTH

[14] = system: rat liver microsomes; conditions: 4 mM saccharolactone, ref Brunelle & Verbeeck 1993; cited from earlier work

SMILES: O=C(O)[C@@H](O)[C@H]1OC(=O)[C@H](O)[C@H]1O [saccharolactone, D-saccharic acid 1,4-lactone]
- AZT glucuronidation, % of the control activity (measured at 0 mM) ([1]; 5 mM saccharolactone): 102±2%
- AZT glucuronidation, % of the control activity (measured at 0 mM) ([1]; 20 mM saccharolactone): 102±8%
- decrease of acetaminophen glucuronidation [2]: 45%
- 5-HT glucuronidation, % of the control activity (measured at 0 mM) ([3]; 5 mM saccharolactone): 91±6%
- 5-HT glucuronidation, % of the control activity (measured at 0 mM) ([3]; 20 mM saccharolactone): 90±7%
- effect on 5-hydroxytryptamine glucuronidation ([3]; UGT1A6 expressed in mammalian (HEK293) cells, saccharolactone up to 20 mM): no effect
- Estradiol-17 glucuronidation, % of the control activity (measured at 0 mM) ([4]; 5 mM saccharolactone): 90±14%
- Estradiol-17 glucuronidation, % of the control activity (measured at 0 mM) ([4]; 20 mM saccharolactone): 98±10%
- 5-HT glucuronidation, % of the control activity (measured at 0 mM) ([5]; 5 mM saccharolactone): 88±7%
- 5-HT glucuronidation, % of the control activity (measured at 0 mM) ([5]; 20 mM saccharolactone): 96±0%
- effect on 5-hydroxytryptamine glucuronidation ([5]; UGT1A6 expressed in insect cells, saccharolactone up to 20 mM): no effect
- Salicylic Acid glucuronidation, % of the control activity (measured at 0 mM) ([6]; 1 mM saccharolactone): 101±5%
- Salicylic Acid glucuronidation, % of the control activity (measured at 0 mM) ([6]; 2 mM saccharolactone): 111±5%
- Salicylic Acid glucuronidation, % of the control activity (measured at 0 mM) ([6]; 5 mM saccharolactone): 83±3 ^a %
- Salicylic Acid glucuronidation, % of the control activity (measured at 0 mM) ([6]; 10 mM saccharolactone): 90±1%
- Salicylic Acid glucuronidation, % of the control activity (measured at 0 mM) ([6]; 20 mM saccharolactone): 85±9 ^a %
- Estradiol-17 glucuronidation, % of the control activity (measured at 0 mM) ([7]; 1 mM saccharolactone): 71±4 ^a %
- Estradiol-17 glucuronidation, % of the control activity (measured at 0 mM) ([7]; 2 mM saccharolactone): 81±8%
- Estradiol-17 glucuronidation, % of the control activity (measured at 0 mM) ([7]; 5 mM saccharolactone): 78±7 ^a %
- Estradiol-17 glucuronidation, % of the control activity (measured at 0 mM) ([7]; 10 mM saccharolactone): 68±2%
- Estradiol-17 glucuronidation, % of the control activity (measured at 0 mM) ([7]; 20 mM saccharolactone): 66±6 ^a %
- Estradiol-3 glucuronidation, % of the control activity (measured at 0 mM) ([8]; 1 mM saccharolactone): 68±5%
- Estradiol-3 glucuronidation, % of the control activity (measured at 0 mM) ([8]; 2 mM saccharolactone): 84±1%
- Estradiol-3 glucuronidation, % of the control activity (measured at 0 mM) ([8]; 5 mM saccharolactone): 76±9 ^a %
- Estradiol-3 glucuronidation, % of the control activity (measured at 0 mM) ([8]; 10 mM saccharolactone): 67±5 ^a %
- Estradiol-3 glucuronidation, % of the control activity (measured at 0 mM) ([8]; 20 mM saccharolactone): 67±7 ^a %
- decrease in estradiol-3 glucuronidation activity ([8]; pHLMs, 20 mM saccharolactone, p<0.05): 33%
- inhibition of estradiol glucuronide hydrolysis [9]: effective in the inhibition of hydrolysis
- effect on partial clearance of diflunisal acyl glucuronide [10]: increase
- effect on partial clearance of diflunisal phenol glucuronide [10]: little effect
- Codeine glucuronidation, % of the control activity (measured at 0 mM) ([11]; 5 mM saccharolactone): 90±7%
- Codeine glucuronidation, % of the control activity (measured at 0 mM) ([11]; 20 mM saccharolactone): 90±3%
- inhibition of estradiol glucuronide hydrolysis [12]: effective in the inhibition of hydrolysis
- Salicylic Acid glucuronidation, % of the control activity (measured at 0 mM) ([13]; 5 mM saccharolactone): 96±7%
- Salicylic Acid glucuronidation, % of the control activity (measured at 0 mM) ([13]; 20 mM saccharolactone): 99±7%
- change in diflunisal phenol glucuronide formation [14]: no change
- increase of diflunisal acyl glucuronide formation (Vmax) [14]: 2 fold
